Data taken from paper PMC10023787, “Trio-pharmacophore DNA-encoded chemical library for simultaneous selection of fragments and linkers” (Nature Communications, 2023).

How the values were obtained:
[1] = target: T1, MMP-9 (Homo sapiens, UniProt P14780); assay: De novo T-DEL selection against MMP-9, NGS decoding; type: binding; conditions: for Enrichment Fold / Count: MMP9 selection; for Count: NGS sequence count per Compound ID (Figure 4a)
T1 construct: purchased Sino Biological 10327-HNAH
From the text: (§1) Matrix metalloproteinases (MMPs) are zinc-dependent endopeptidases capable of degrading and remodeling extracellular matrix components[46],[47]. They are attractive therapeutic targets as high expression levels were detected in various diseases, such as inflammatory diseases, and at different stages of cancers, including metastasis, invasion, and angiogenesis[47]–[53]. As shown in Supplementary Fig. 3c, we performed selections against the two gelatinases (human MMP-2 and human MMP-9) to identify binding fragments for later design and synthesis of small molecule inhibitors. After selection, the three sub-libraries were decoded, and the enrichment was calculated by dividing the post-selection fraction (count/total counts) by the pre-selection fraction (Fig. 4a and Supplementary Fig. 13).
(§2) 4 µg of MMP-2/MMP-9 was dissolved in 100 µl of selection buffer containing 25 mM Tris-base, 10 mM CaCl2, 150 mM NaCl, 0.05% Tween 20, pH 7.5. 10 µl of 4-Aminophenylmercuric acetate (APMA) (100 mM) solution was added to the protein solution and incubated at 37 °C for 1 h. After activation, the solution was added on top of 40 µl pre-washed Ni-NTA resin and incubated for 30 min on a rotary shaker. The supernatant was discarded, and the resin was washed three times with the selection buffer.
(§3) For each independent selection, three sub-libraries were mixed in the selection buffer with a final concentration of 40 nM of each sub-library in 100 µl. The mixture was heat denatured at 90 °C for 1 min and slowly cooled down to allow the formation of the trio-pharmacophore library. The dynamic dual-pharmacophore DEL was provided by DyNAbind GmbH (Merck, DYNA001).
(§4) The assembled library was incubated with the protein-bound solid support for 2 h at RT on a rotary shaker. In parallel, selection on bare solid support served as the negative control to exclude promiscuous binders on the resin. After panning, the supernatant was discarded, and the resin was washed three times with 1 ml selection buffer. Finally, 100 µl of 50 mM Tris buffer, pH 7.4 was added to resuspend the resin and the resin was incubated at 95 °C for 5 min to denature the protein, release, and collect the bound library members.
(§5) The eluted library members were subjected to sample preparation for NGS. NGS preparation was achieved by two-step PCR. First, the individual selection was indexed using primers containing unique sequences corresponding to each selection. The amplified product was purified from 2% agarose gel. Second, the purified DNA from all selections were pooled in equal amount and subjected to the 2nd PCR step to attach sequences compatible with the NGS flow cell and the sequencing primers. NGS was performed by Novogene UK with Novaseq 6000. Raw data files (fastq files) obtained were decoded using a custom python script and excel. The sequence reads corresponding to each sample was retrieved by searching for the correct index unique to each selection. Then, the code region was extracted from each sequence and assigned to the corresponding identity. The count of each code in each selection sample was obtained by looping through the total reads and counting the occurrence of each code. The enrichment fold of each compound was calculated by first, dividing the count by the total count to get the abundance, second, the abundance after the selection was divided by the abundance of pre-selection to reflect the distribution change of the compound. Next, the enrichment fold was plotted against the count for each member of the library to give the scatter plots as in Fig. 4.

[2] = target: T2, MMP-2 (Homo sapiens, UniProt P08253); assay: Dynamic dual-pharmacophore DEL selection against MMP-2, NGS decoding; type: binding; conditions: for MMP2 3L Enrichment Fold: 3L library (Supplementary fig 13); for MMP2 3L Count: 3L library; for MMP2 3L Count / MMP2 5L Count: sequence count (Supplementary fig 13); for MMP2 5L Enrichment Fold: 5L library (Supplementary fig 13); for MMP2 5L Count: 5L library
T2 construct: purchased Sino Biological 10082-HNAH
T2 sequence (P08253 110-660): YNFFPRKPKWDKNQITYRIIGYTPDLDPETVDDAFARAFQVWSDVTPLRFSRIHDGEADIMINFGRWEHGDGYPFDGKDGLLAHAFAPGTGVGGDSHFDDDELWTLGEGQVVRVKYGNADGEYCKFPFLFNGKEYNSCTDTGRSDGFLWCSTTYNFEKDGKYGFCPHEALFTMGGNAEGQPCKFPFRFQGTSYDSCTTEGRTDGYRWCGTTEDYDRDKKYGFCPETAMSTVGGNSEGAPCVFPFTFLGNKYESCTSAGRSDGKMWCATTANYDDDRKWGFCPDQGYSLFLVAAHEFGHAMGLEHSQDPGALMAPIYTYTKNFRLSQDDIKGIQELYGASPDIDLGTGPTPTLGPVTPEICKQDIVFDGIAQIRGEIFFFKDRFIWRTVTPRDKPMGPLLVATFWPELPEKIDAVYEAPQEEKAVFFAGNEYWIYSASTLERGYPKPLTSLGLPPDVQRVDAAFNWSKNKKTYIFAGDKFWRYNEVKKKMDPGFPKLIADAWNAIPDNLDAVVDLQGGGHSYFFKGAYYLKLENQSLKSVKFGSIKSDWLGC
From the text: as §1, §2, §3, §4, §5

[3] = NGS sequence count of sub-library SL-A building block, de novo T-DEL selection against MMP-9
[4] = NGS sequence count of sub-library SL-C building block, de novo T-DEL selection against MMP-9
[5] = sub-library SL-A building block, de novo T-DEL selection against MMP-9
[6] = sub-library SL-C building block, de novo T-DEL selection against MMP-9
[7] = enrichment fold of sub-library SL-C member, MMP-9 selection, Figure 4a source data
[8] = sequence count of sub-library SL-C member, MMP-9 selection, Figure 4a source data
[9] = MMP2 3L (3' sub-library members)
[10] = MMP2 3L (3' sub-library members), NGS sequence count after selection

T1 sequence (P14780 107-707 limits assumed): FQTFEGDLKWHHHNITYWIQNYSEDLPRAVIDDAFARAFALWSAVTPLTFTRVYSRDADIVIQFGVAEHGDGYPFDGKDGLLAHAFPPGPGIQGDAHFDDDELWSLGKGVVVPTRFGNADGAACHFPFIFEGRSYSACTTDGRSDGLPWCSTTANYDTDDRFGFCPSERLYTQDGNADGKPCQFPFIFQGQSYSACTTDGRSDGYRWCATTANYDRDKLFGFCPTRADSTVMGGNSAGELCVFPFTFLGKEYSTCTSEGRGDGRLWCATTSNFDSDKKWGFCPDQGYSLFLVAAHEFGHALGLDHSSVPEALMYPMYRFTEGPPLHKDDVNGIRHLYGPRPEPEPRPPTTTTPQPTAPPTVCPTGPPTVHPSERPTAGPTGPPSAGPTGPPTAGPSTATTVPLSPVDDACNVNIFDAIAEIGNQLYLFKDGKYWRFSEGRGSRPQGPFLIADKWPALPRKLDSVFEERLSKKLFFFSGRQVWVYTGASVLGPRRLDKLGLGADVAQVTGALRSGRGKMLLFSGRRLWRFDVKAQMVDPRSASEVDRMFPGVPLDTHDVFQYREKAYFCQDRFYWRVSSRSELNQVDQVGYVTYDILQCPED

SMILES	Enrichment Fold ([2]; MMP2 selection, 3L sub-library)	Enrichment Fold ([2]; MMP2 selection, 5L sub-library)	MMP9 SL-A Count [1, 3]	MMP9 SL-C Count [1, 4]	MMP9 SL-A Enrichment Fold [1, 5]	MMP9 SL-C Enrichment Fold [1, 6]	MMP2 3L Enrichment Fold ([2]; MMP2 selection)	MMP2 3L Count ([2]; MMP2 selection)	MMP2 5L Enrichment Fold ([2]; MMP2 selection)	MMP2 5L Count ([2]; MMP2 selection)	MMP9 SL-C Enrichment Fold [1, 7]	MMP9 SL-C Count [1, 8]	Enrichment Fold [2, 9]	Count [2, 10]	further results
O=C(O)Cn1cnc2c(oc3ccccc32)c1=O [Compound 182]	1.088	1.688	–	–	–	–	–	–	–	–	–	–	–	–	MMP9 SL-A Count ([1]; NGS sequence count per SL-A member, de novo T-DEL selection against MMP-9 (Figure 4a source data)): 5190; MMP9 SL-C Count ([1]; NGS sequence count per SL-C member, de novo T-DEL selection against MMP-9 (Figure 4a source data)): 816; MMP9 SL-A Enrichment Fold ([1]; enrichment fold per SL-A member, de novo T-DEL selection against MMP-9 (Figure 4a source data)): 1.432; MMP9 SL-C Enrichment Fold ([1]; enrichment fold per SL-C member, de novo T-DEL selection against MMP-9 (Figure 4a source data)): 0.7692; Count ([2]; MMP2 selection, 3L sub-library, sequence count per compound ID): 1179; Count ([2]; MMP2 selection, 5L sub-library, sequence count per compound ID): 5803
O=C(O)CNC(=O)NC12CC3CC(CC(C3)C1)C2 [Compound 66]	1.69	1.932	–	–	–	–	–	–	–	–	–	–	–	–	Enrichment Fold ([1]; sub-library SL-A (Figure 4a)): 2.103; Count ([1]; sub-library SL-A): 4968; Enrichment Fold ([1]; sub-library SL-C (Figure 4a)): 0.3958; Count ([1]; sub-library SL-C): 87; Count ([2]; MMP2 selection, 3L sub-library, NGS sequence count): 477; Count ([2]; MMP2 selection, 5L sub-library, NGS sequence count): 4327
NCc1c[nH]nn1 [Compound 787]	–	–	949	3684	0.9459	3.649	3.194	2558	0.7494	713	–	–	–	–	–
O=C(O)c1cncc(O)c1 [Compound 828]	–	–	–	–	–	–	–	–	–	–	10.2969	32127	6.248	14566	–
Cn1c(O)nc2cc(C(=O)O)cnc21 [Compound 826]	–	–	1891	–	1.691	–	–	–	2.035	2158	4.359	10836	11.3583	12779	–
Cc1cc(=O)[nH]c(-n2nc(C)c(CCC(=O)O)c2C)n1 [Compound 693]	–	–	8460	1032	3.659	1.167	0.8647	991	3.023	6628	–	–	–	–	–
